Assays:
[1] = molecular target: T1, Muscarinic acetylcholine receptor M1 (Homo sapiens, UniProt P11229); type: functional, cell-based
T1 sequence (P11229 whole entry): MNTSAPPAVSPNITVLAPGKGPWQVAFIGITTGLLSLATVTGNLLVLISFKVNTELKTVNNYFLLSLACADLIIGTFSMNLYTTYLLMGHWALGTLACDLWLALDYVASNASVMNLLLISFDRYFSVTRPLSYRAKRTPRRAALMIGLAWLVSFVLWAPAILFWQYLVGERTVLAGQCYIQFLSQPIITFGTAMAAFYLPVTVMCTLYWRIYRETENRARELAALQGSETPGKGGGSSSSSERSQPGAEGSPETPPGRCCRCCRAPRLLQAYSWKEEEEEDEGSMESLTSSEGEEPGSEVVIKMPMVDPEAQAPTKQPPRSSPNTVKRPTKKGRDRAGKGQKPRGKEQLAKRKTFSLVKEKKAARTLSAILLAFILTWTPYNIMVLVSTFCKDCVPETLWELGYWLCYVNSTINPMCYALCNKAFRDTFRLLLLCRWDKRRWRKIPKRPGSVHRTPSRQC

[2] = molecular target: Gamma-aminobutyric acid receptor subunit alpha-1 (Rattus norvegicus, UniProt P62813)
Gamma-aminobutyric acid receptor subunit alpha-1, sequence (P62813 whole entry): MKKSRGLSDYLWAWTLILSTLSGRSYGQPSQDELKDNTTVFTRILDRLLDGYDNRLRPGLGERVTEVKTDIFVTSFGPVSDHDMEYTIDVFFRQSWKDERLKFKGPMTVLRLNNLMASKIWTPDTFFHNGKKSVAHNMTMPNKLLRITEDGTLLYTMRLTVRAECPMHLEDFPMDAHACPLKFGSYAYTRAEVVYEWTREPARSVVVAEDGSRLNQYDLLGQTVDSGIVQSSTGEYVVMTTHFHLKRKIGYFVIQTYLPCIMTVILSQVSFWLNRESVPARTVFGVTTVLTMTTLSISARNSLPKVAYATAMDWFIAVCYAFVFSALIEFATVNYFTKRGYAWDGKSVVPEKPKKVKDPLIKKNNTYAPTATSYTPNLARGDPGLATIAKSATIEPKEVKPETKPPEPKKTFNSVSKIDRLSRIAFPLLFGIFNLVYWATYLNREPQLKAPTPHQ

[3] = molecular target: T2, Adenosine receptor A1 (Homo sapiens, UniProt P30542)
T2 sequence (P30542 whole entry): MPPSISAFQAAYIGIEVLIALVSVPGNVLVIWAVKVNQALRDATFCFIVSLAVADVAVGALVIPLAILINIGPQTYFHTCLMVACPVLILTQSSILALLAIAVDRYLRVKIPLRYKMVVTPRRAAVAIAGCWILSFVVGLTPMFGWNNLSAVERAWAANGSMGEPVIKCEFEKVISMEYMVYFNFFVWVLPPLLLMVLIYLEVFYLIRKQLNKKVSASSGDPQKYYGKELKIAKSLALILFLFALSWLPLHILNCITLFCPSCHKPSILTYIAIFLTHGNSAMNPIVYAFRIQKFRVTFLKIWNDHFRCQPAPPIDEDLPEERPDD

[4] = molecular target: Beta-2 adrenergic receptor (Homo sapiens, UniProt P07550)
Beta-2 adrenergic receptor, sequence (P07550 whole entry): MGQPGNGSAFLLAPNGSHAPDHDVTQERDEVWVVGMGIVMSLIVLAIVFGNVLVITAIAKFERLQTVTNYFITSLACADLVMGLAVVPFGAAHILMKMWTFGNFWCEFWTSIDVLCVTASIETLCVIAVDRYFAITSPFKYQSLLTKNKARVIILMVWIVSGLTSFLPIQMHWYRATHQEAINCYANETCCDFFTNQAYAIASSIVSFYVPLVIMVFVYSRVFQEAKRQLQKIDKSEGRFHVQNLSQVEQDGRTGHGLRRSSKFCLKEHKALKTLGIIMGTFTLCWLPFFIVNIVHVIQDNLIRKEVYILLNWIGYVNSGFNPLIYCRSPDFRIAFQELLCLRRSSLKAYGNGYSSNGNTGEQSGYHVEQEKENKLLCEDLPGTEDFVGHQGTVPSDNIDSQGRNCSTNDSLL

[5] = molecular target: T3, B2 bradykinin receptor (Homo sapiens, UniProt P30411)
T3 sequence (P30411 whole entry): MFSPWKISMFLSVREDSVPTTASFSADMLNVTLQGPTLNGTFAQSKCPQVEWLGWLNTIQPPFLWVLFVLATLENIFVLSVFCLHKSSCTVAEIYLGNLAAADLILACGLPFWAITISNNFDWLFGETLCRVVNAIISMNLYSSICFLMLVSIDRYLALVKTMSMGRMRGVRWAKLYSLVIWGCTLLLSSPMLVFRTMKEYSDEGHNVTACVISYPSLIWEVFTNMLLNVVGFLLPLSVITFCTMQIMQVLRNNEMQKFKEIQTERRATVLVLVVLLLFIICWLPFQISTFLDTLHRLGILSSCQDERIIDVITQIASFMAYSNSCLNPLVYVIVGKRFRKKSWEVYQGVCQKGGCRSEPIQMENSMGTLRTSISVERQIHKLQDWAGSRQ

[6] = molecular target: T4, Gastrin/cholecystokinin type B receptor (Homo sapiens, UniProt P32239)
T4 sequence (P32239 whole entry): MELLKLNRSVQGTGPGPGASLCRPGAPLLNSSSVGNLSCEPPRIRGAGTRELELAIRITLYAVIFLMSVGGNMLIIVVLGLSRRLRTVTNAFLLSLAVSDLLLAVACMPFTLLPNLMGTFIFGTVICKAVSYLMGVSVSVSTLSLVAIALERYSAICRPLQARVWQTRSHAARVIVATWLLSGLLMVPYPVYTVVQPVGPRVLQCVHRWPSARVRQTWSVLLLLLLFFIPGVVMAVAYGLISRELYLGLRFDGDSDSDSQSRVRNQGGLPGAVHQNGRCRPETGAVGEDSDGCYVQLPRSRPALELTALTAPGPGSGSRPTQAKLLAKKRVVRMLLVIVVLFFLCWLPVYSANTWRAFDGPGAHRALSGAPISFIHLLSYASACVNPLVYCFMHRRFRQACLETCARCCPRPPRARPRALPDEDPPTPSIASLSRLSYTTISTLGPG

[7] = molecular target: Glutamate receptor ionotropic, NMDA 1 (Rattus norvegicus, UniProt P35439)
[8] = molecular target: T5, Prostaglandin G/H synthase 1 (Rattus norvegicus, UniProt Q63921); type: functional
T5 sequence (Q63921 whole entry): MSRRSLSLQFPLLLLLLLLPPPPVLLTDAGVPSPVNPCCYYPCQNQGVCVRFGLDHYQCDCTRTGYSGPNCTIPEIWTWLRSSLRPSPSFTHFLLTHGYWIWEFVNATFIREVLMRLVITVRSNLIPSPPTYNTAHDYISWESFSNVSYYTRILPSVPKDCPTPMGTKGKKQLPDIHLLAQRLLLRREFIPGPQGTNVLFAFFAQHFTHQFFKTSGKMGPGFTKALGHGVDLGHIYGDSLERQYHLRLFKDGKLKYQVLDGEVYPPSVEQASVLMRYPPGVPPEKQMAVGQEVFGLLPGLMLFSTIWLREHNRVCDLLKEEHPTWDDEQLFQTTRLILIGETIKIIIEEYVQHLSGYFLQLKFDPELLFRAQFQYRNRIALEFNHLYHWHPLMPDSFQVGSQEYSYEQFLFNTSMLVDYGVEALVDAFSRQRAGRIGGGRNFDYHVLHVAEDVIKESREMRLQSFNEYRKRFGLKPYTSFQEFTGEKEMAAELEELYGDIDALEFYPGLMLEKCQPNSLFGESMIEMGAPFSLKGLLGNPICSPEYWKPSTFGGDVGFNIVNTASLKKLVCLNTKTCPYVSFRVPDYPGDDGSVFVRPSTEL

[9] = molecular target: T6, Thromboxane A2 receptor (Homo sapiens, UniProt P21731)
T6 sequence (P21731 whole entry): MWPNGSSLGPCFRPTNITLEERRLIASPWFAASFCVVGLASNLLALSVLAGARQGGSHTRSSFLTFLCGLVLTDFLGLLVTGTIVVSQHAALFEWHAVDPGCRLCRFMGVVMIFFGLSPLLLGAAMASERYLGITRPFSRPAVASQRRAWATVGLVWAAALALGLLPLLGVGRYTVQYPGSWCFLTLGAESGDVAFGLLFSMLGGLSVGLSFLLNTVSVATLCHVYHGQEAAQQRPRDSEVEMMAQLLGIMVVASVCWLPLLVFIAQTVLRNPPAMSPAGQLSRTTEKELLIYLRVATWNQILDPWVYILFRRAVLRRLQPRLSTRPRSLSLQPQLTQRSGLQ

[10] = molecular target: cGMP-inhibited 3',5'-cyclic phosphodiesterase 3A (Homo sapiens, UniProt Q14432); type: functional
cGMP-inhibited 3',5'-cyclic phosphodiesterase 3A, sequence (Q14432 whole entry): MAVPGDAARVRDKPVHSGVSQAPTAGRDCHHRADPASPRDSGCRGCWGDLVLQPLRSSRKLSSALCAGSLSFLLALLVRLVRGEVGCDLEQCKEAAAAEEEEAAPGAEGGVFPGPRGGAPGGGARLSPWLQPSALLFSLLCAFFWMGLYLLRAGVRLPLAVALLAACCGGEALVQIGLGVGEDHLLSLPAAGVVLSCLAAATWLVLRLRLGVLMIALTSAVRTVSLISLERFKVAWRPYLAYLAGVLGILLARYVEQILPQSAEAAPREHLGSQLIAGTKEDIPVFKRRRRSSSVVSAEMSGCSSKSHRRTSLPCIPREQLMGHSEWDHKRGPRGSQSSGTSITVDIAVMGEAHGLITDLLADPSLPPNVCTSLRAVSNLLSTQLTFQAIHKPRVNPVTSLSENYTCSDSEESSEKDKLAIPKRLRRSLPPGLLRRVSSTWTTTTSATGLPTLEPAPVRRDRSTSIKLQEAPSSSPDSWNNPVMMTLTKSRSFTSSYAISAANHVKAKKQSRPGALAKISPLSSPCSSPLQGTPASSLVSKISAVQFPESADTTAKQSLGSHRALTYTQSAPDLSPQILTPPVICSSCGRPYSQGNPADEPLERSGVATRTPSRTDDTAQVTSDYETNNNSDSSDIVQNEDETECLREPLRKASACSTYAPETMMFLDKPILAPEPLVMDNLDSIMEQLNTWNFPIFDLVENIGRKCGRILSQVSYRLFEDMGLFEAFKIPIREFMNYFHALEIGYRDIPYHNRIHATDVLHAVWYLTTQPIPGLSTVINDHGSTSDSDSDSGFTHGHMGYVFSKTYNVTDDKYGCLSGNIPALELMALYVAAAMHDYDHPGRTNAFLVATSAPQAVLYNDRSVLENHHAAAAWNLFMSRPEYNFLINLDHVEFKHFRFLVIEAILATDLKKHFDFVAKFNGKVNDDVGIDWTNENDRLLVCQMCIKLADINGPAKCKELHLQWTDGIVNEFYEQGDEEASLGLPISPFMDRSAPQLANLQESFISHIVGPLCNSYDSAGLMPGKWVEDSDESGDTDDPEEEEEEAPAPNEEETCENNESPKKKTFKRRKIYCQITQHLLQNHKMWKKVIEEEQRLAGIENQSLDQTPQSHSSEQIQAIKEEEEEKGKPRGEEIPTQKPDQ
Note: assay procedure not described here.

Compound `CCCCc1oc2ccc(NS(C)(=O)=O)cc2c1C(=O)c1ccc(OCCCN(CCCC)CCCC)cc1` [DRONEDARONE] has an AC50 [1] of over 30 µM and an AC50 [2] of over 30 µM.
`CC(C)C(=O)Oc1ccc(CO)cc1[C@H](CCN(C(C)C)C(C)C)c1ccccc1` [FESOTERODINE] gave an AC50 [1] of over 30 µM and an AC50 [2] of over 30 µM.
`CC[C@H]1OC(=O)[C@H](C)[C@@H](O[C@H]2C[C@@](C)(OC)[C@@H](O)[C@H](C)O2)[C@H](C)[C@@H](O[C@@H]2O[C@H](C)C[C@H](N(C)C)[C@H]2O)[C@](C)(O)C[C@@H](C)[C@@H]2N[C@@H](COCCOC)O[C@H]([C@H]2C)[C@]1(C)O` [DIRITHROMYCIN] was tested, and the AC50 [1] was over 30 µM and the AC50 [2] was over 30 µM.
`C[C@H]1CN(C[C@H](Cc2ccccc2)C(=O)NCC(=O)O)CC[C@@]1(C)c1cccc(O)c1` [ALVIMOPAN] showed an AC50 [1] of over 30 µM.
Work on `CCNC(=O)/C=C(C)/C=C/C=C(C)/C=C/c1c(C)cc(OC)c(C)c1C` [MOTRETINIDE] yielded an AC50 [1] of over 30 µM.
For `Cc1ccccc1C(=O)Nc1ccc(C(=O)N2CCCC(O)c3cc(Cl)ccc32)c(C)c1` (stereo not drawn) [TOLVAPTAN], the AC50 [1] was over 30 µM.
Work on `CCCCC1C(=O)N(c2ccccc2)N(c2ccc(O)cc2)C1=O` (stereo not drawn) [OXYPHENBUTAZONE ANHYDROUS] yielded an AC50 [1] of over 30 µM and an AC50 [2] of over 30 µM.
Compound `O=C(O)c1ccccc1` [BENZOIC ACID] has an AC50 [2] of over 30 µM.
Work on `COC(=O)[C@@H](N)Cc1ccc(O)c(O)c1` [MELEVODOPA] yielded an AC50 [1] of over 30 µM and an AC50 [2] of over 30 µM.
For `C#C[C@]1(O)C=C[C@H]2[C@@H]3CCC4=CC(=O)CC[C@@H]4[C@H]3CC[C@@]21CC` [GESTODENE], the AC50 [2] was 2.16 µM.
Compound `CN(C)c1ccc(O)c2c1C[C@H]1C[C@H]3[C@H](N(C)C)C(O)=C(C(N)=O)C(=O)[C@@]3(O)C(O)=C1C2=O` [MINOCYCLINE] has an AC50 [1] of over 30 µM.
In the case of `Nc1c(CC(=O)O)cccc1C(=O)c1ccc(Br)cc1` [BROMFENAC], the AC50 [2] is reported as over 30 µM.
Compound `Cc1ccc(C)c(OCCCC(C)(C)C(=O)O)c1` [GEMFIBROZIL] has an AC50 [3] of over 30 µM, an AC50 [4] of over 10 µM and an AC50 [5] of over 30 µM. It also gave an AC50 [6] of over 30 µM, an AC50 [2] of over 30 µM and an AC50 [7] of over 10 µM. It also gave an AC50 [8] of over 30 µM, an AC50 [9] of over 30 µM and an AC50 [10] of over 30 µM.
Compound `Cc1cc(=O)oc2cc(O)ccc12` [HYMECROMONE] has an AC50 [1] of over 30 µM and an AC50 [2] of over 30 µM.
Work on `CC(C)NC(=N)NC(=N)Nc1ccc(Cl)c(Cl)c1` [CHLORPROGUANIL] yielded an AC50 [2] of over 30 µM, an AC50 [7] of over 30 µM and an AC50 [10] of over 30 µM.
Work on `CC(CN1c2ccccc2Sc2ccccc21)N(C)C` (stereo not drawn) [PROMETHAZINE] yielded an AC50 [3] of over 30 µM, an AC50 [4] of over 10 µM and an AC50 [5] of over 30 µM. For the same compound, the AC50 [6] was over 30 µM, the AC50 [2] was over 30 µM and the AC50 [7] was over 10 µM. For the same compound, the AC50 [8] was over 30 µM, the AC50 [9] was over 30 µM and the AC50 [10] was over 30 µM.
`CC(C)C[C@H](NC(=O)[C@@H](O)[C@H](N)Cc1ccccc1)C(=O)O` [UBENIMEX] gave an AC50 [2] of over 30 µM, an AC50 [7] of over 30 µM and an AC50 [8] of over 30 µM. The AC50 [9] was over 30 µM and the AC50 [10] was over 30 µM.
`CC(=O)Nc1ccc(CC(=O)O)cc1` [ACTARIT] was tested, and the AC50 [3] was over 30 µM, the AC50 [4] was over 30 µM and the AC50 [5] was over 30 µM. The AC50 [6] was over 30 µM, the AC50 [7] was over 30 µM and the AC50 [8] was over 30 µM. It also gave an AC50 [9] of over 30 µM and an AC50 [10] of over 30 µM.

— ChEMBL document CHEMBL5291721, “A preclinical secondary pharmacology resource illuminates target-adverse drug reaction associations of marketed drugs” (Nat Commun, 2023)
